Drawing on DBAASP, this text covers MIC for nine compounds.

Converted amounts (≈) assume the structure as drawn. Some results are limits rather than exact numbers.

Some test systems named below: Candida albicans; Escherichia coli UB1005; Escherichia coli BL21AI.
Holding throughout (test): ≥ marks a high value that may be exact or a test limit, other limits are often not marked, values filed in µg/mL are converted to µM
Assay [1] concerns Escherichia coli ATCC 11219.
The subject of assay [2] is Klebsiella pneumoniae ATCC 10031.
Assay [3] relates to Pseudomonas aeruginosa ATCC 13388.
Assay [4] deals with Salmonella enterica subsp. enterica serovar Typhimurium ATCC 14028.
Assay [5] has as its system Staphylococcus aureus ATCC 6538.
The test system of assay [6] is Cronobacter muytjensii ATCC 51329.
The test system of assay [7] is Cronobacter sakazakii ATCC BAA-894.
Assay [8] concerns Cronobacter sakazakii DPC 6440.
Assay [9] deals with Cronobacter sakazakii DSM 4485.
Assay [10] concerns Escherichia coli NCIMB 11843.
Assay [11] relates to Klebsiella pneumoniae NCIMB 13218.
For assay [12], the system named is Pseudomonas fluorescens NCIMB 9046.
Assay [13] has as its system Salmonella enterica subsp. enterica serovar Typhimurium LT2.
The subject of assay [14] is Staphylococcus aureus NCTC 8325-4.
Assay [15] relates to Staphylococcus aureus Newman.
The test system of assay [16] is Staphylococcus aureus RF122.
The subject of assay [17] is Staphylococcus aureus RN4220.
For assay [18], the system named is Staphylococcus aureus SA113.
Assay [19] deals with Enterococcus faecalis ATCC 29212.
Assay [20] concerns Pseudomonas aeruginosa H103.
For assay [21], the system named is Salmonella enterica serovar Typhimurium.
Assay [22] deals with Staphylococcus aureus ATCC 25923.
The test system of assay [23] is Staphylococcus epidermidis.
In assay [24] the test system is Micrococcus luteus ATCC 10240.

Usually MIC stands for the smallest concentration in the dilution series that meets the test's criterion for growth inhibition.

On to `CC[C@H](C)[C@H](NC(=O)[C@H](C)N)C(=O)N[C@@H](Cc1cnc[nH]1)C(=O)N[C@@H](CC(=O)O)C(=O)N[C@H](C(=O)N[C@@H](CC(C)C)C(=O)N[C@@H](CCCCN)C(=O)N[C@@H](Cc1ccc(O)cc1)C(=O)NCC(=O)N[C@@H](CCCCN)C(=O)N1CCC[C@H]1C(=O)N[C@@H](CO)C(N)=O)[C@@H](C)CC` [AIHDILKYGKPS], for which the MIC is no less than 50 µM in assay [1]; no less than 50 µM in [2]; 10 µM (≈ 13.4 µg/mL) in assay [3]; 3 µM (≈ 4.02 µg/mL) in assay [4]; 10 µM (≈ 13.4 µg/mL) in [5].
Take `CC[C@H](C)[C@H](NC(=O)CN)C(=O)N[C@@H](Cc1cnc[nH]1)C(=O)N[C@@H](CC(=O)O)C(=O)N[C@H](C(=O)N[C@@H](CC(C)C)C(=O)N[C@@H](CCCCN)C(=O)N[C@@H](C)C(=O)NCC(=O)N[C@@H](CCCCN)C(=O)N1CCC[C@H]1C(=O)N[C@@H](CO)C(N)=O)[C@@H](C)CC` [GIHDILKAGKPS]: the MIC was 20 µM (≈ 24.7 µg/mL) in assay [1]; 20 µM (≈ 24.7 µg/mL) in [2]; no less than 50 µM in [3]; greater than 50 µM in assay [4]; 10 µM (≈ 12.3 µg/mL) in [5].
Consider `CC[C@H](C)[C@H](NC(=O)CN)C(=O)N[C@@H](CCCN=C(N)N)C(=O)N[C@@H](CCCN=C(N)N)C(=O)N[C@H](C(=O)N[C@@H](CC(C)C)C(=O)N[C@@H](CCCN=C(N)N)C(=O)N[C@@H](Cc1ccc(O)cc1)C(=O)NCC(=O)N[C@@H](CCCN=C(N)N)C(=O)N1CCC[C@H]1C(=O)N[C@@H](CO)C(N)=O)[C@@H](C)CC` [GIRRILRYGRPS], for which the minimum inhibitory concentration (MIC) amounted to 4 µM (≈ 5.77 µg/mL) in assay [1]; 10 µM (≈ 14.4 µg/mL) in assay [2]; 10 µM (≈ 14.4 µg/mL) in assay [3]; 10 µM (≈ 14.4 µg/mL) in [4]; 5 µM (≈ 7.21 µg/mL) in assay [5].
On to `CC[C@H](C)[C@H](N)C(=O)N[C@@H](C)C(=O)N[C@@H](C)C(=O)N[C@@H](C)C(=O)NCC(=O)N[C@@H](CC(C)C)C(=O)N1CCC[C@H]1C(=O)N[C@@H](CCC(N)=O)C(=O)N[C@@H](CCC(=O)O)C(=O)O` [IAAAGLPQE], for which the MIC in [6] was no less than 1250 µM; in assay [7], no less than 1250 µM; in assay [8], no less than 625 µM; in assay [9] it was no less than 1250 µM; in [10] it was no less than 2500 µM; in [11], no less than 1250 µM. Further, the minimum inhibitory concentration (MIC) in [12] is no less than 2500 µM; in assay [13], no less than 2500 µM; in assay [14], no less than 1250 µM; in assay [15], no less than 1250 µM; in [16], no less than 312 µM; in [17] it was no less than 312 µM. Besides, the minimum inhibitory concentration (MIC) in [18] is no less than 1250 µM.
With `CC[C@H](C)[C@H](N)C(=O)N[C@@H](Cc1cnc[nH]1)C(=O)N[C@@H](CCC(N)=O)C(=O)NCC(=O)N[C@@H](CC(C)C)C(=O)N1CCC[C@H]1C(=O)N[C@@H](CCC(N)=O)C(=O)N[C@@H](CCC(=O)O)C(=O)O` [IHQGLPQE], the MIC in [6], in [7], in assay [8], in assay [9], in assay [10] and in assay [11] was no less than 2500 µM each time. The minimum inhibitory concentration (MIC) is no less than 2500 µM in [12]; no less than 2500 µM in assay [13]; no less than 2500 µM in assay [14]; no less than 2500 µM in [15]; no less than 1250 µM in assay [16]; no less than 1250 µM in assay [17]. For the same compound, the minimal inhibitory concentration (MIC) in assay [18] is no less than 2500 µM.
With `CC[C@H](C)[C@H](N)C(=O)N[C@@H](CC(C)C)C(=O)N1CCC[C@H]1C(=O)N[C@@H](Cc1c[nH]c2ccccc12)C(=O)N[C@@H](CCCCN)C(=O)N[C@@H](Cc1c[nH]c2ccccc12)C(=O)N[C@@H](CCCN=C(N)N)C(=O)N[C@@H](Cc1c[nH]c2ccccc12)C(=O)N[C@@H](Cc1c[nH]c2ccccc12)C(=O)N[C@@H](CCCCN)C(=O)N[C@@H](Cc1c[nH]c2ccccc12)C(=O)N[C@@H](CCCN=C(N)N)C(=O)N[C@@H](CCCN=C(N)N)C(=O)O` [ILPWKWRWWKWRR], the minimum inhibitory concentration (MIC) in the assay with Candida albicans is 2.9 µM (≈ 5.79 µg/mL); in [19] it was 2.9 µM (≈ 5.79 µg/mL); against Escherichia coli UB1005, 1.4 µM (≈ 2.8 µg/mL); in assay [20], 5.7 µM (≈ 11.4 µg/mL); in assay [21] it was 5.7 µM (≈ 11.4 µg/mL); in assay [22], 0.7 µM (≈ 1.4 µg/mL). Moreover, in [23], the minimum inhibitory concentration (MIC) came to 0.7 µM (≈ 1.4 µg/mL).
Take `CC[C@H](C)[C@H](NC(=O)[C@H](CCCCN)NC(=O)[C@@H](NC(=O)[C@@H](NC(=O)[C@H](CCCN=C(N)N)NC(=O)[C@H](C)NC(=O)[C@H](CC(C)C)NC(=O)[C@@H](N)CCCN=C(N)N)[C@@H](C)CC)C(C)C)C(=O)N[C@@H](CCCN=C(N)N)C(=O)N[C@H](C(=O)N[C@@H](C)C(=O)N[C@@H](CCCN=C(N)N)C(N)=O)C(C)C` [RLARIVKIRVAR]: the MIC with Candida albicans was 21.4 µM (≈ 31 µg/mL); in assay [19], 86.2 µM (≈ 125 µg/mL); against Escherichia coli UB1005 it was 11 µM (≈ 16 µg/mL); in [20] it was 21.4 µM (≈ 31 µg/mL); in [21], no less than 43.4 µM; in assay [22], 86.2 µM (≈ 125 µg/mL). The MIC in [23] was determined as 21.4 µM (≈ 31 µg/mL).
For `CC[C@H](C)[C@H](NC(=O)[C@H](CCCN=C(N)N)NC(=O)[C@H](CCCN=C(N)N)NC(=O)[C@@H]1CCCN1C(=O)[C@@H]1CCCN1C(=O)[C@H](CCCN=C(N)N)NC(=O)[C@@H]1CCCN1C(=O)[C@H](CCCN=C(N)N)NC(=O)[C@@H]1CCCN1C(=O)[C@H](CC(C)C)NC(=O)[C@H](Cc1ccc(O)cc1)NC(=O)[C@@H]1CCCN1C(=O)[C@@H]1CCCN1C(=O)[C@H](CCCCN)NC(=O)[C@H](CC(=O)O)NC(=O)[C@@H](N)C(C)C)C(=O)N[C@@H](Cc1ccc(O)cc1)C(=O)N[C@@H](CC(N)=O)C(=O)N[C@@H](C)C(N)=O` [VDKPPYLPRPRPPRRIYNA], the MIC in the assay with Escherichia coli BL21AI amounted to 13.9 µM (≈ 32 µg/mL); in [24] it was 6.94 µM (≈ 16 µg/mL).
Regarding `CC(C)C[C@H](NC(=O)[C@H](CC(C)C)NC(=O)[C@H](CC(N)=O)NC(=O)[C@H](CC(=O)O)NC(=O)[C@H](CC(N)=O)NC(=O)[C@H](CC(C)C)NC(=O)[C@@H](N)C(C)C)C(=O)N[C@@H](CCCN=C(N)N)C(=O)O` [VLNDNLLR], the minimum inhibitory concentration (MIC) in assay [6], in assay [7], in assay [8], in [9], in [10] and in assay [11] was no less than 2500 µM throughout. Further, the MIC in [12], in assay [13], in assay [14], in assay [15], in [16] and in [17] was no less than 2500 µM throughout. The compound further returned a minimal inhibitory concentration (MIC) in assay [18] of no less than 2500 µM.
